# According to patent publication US12187729B2, “Compounds having PDE9A inhibitory activity, and pharmaceutical uses thereof” (KOREA RESEARCH INSTITUTE OF CHEMICAL TECHNOLOGY, priority 2018, dated 2025):
# Biological target: PDE9A (Homo sapiens (Human), UniProt O76083)
# Experiment: PDE9A inhibitory activity, fluorescence polarization assay (IMAP-FP screening express kit)
# Type: biochemical
# Conditions: enzyme PDE9A 5 ng/ml, Fl-cGMP substrate 100 nM, room temperature 1 hour
# Procedure: The inhibitory activity of the representative compounds according to the present invention against phosphodiesterase 9A was tested based on the polarization assay (IMAP-FP screening express kit) provided by MDS (MDS Analytical Technologies, Sunyvale, CA, USA). As a buffer solution, a reaction solution (a reaction solution containing 0.01% Tween 20 provided by MDS was diluted 5 times, then 5 mM DTT is added) and a polarization detection solution (binding solution A and B provided by MDS were mixed at a ratio of 3:1 and IMAP binding reagent 1/600 was added) were prepared. 100 μM of the substrate (Fl-cGMP substrate; MDS) and 3.6 μg/ml of the enzyme PDE9A (ab54113; abeam) were prepared. 3.6 μg/ml PDE9A and 100 μM substrate were diluted to 20 ng/ml (final reaction concentration: 5 ng/ml) and 400 nM (final reaction concentration: 100 nM), respectively. The buffer solution used for all dilution and preparation processes was 1× reaction solution with 1 mM DTT added, and the polarization detection solution was used to induce polarization at the end.
# The prepared samples were dispensed on black microplates (Multiwell 384 well plates, #3573, Corning Life Sciences, Lowell, MA, USA) using a 16-channel pipette (multi 16-channel, Finnpipette, Thermo Scientific, Essex, UK). The total reaction volume per well is 20 μl. At this time, 10 μl of 2% DMSO, 5 μl of substrate solution, and 5 μl of reaction solution were used as a negative control, and 10 μl of 2% DMSO, 5 μl of substrate solution, and 5 μl of PDE9A solution were used as a positive control. As the experimental group, 10 μl of the compound prepared in Example, 5 μl of the substrate solution, and 5 μl of the PDE9A solution were used. After pretreatment between the compound and the enzyme was performed for about […] before the enzyme-substrate reaction, 5 μl of cGMP was added to induce the enzyme reaction. During the reaction, each compound, enzyme, and substrate occupied 50%, 25%, and 25% of the total volume, respectively, and they were prepared at high concentrations of 2, 4, and 4 times, respectively, immediately before addition. After the enzymatic reaction, it was shaken lightly for 1 minute and the enzyme reaction was induced at room temperature for 1 hour. Then, 60 μl of a polarization detection solution prepared in advance was added to induce polarization.
# Nanoparticles composed of trivalent metal ions are mixed in the fluorescence detection solution, which combines with phosphoric acid expose by enzymatic reaction to increase the molecular weight and induce polarization. After leaving for 2 hours at room temperature, the polarization (Fluorescence Polarization, FP) value was measured using a multilabel counter (Envision, PerkinElmer, Turku, Finland) (emission wavelength: P-535 nm, S-535 nm, excitation wavelength: 480 nm), and the result was expressed as an IC50 value, which is the concentration of the compound that inhibited PDE9A by 50% in vitro (Table 2).
# Sequence of PDE9A (O76083 whole entry): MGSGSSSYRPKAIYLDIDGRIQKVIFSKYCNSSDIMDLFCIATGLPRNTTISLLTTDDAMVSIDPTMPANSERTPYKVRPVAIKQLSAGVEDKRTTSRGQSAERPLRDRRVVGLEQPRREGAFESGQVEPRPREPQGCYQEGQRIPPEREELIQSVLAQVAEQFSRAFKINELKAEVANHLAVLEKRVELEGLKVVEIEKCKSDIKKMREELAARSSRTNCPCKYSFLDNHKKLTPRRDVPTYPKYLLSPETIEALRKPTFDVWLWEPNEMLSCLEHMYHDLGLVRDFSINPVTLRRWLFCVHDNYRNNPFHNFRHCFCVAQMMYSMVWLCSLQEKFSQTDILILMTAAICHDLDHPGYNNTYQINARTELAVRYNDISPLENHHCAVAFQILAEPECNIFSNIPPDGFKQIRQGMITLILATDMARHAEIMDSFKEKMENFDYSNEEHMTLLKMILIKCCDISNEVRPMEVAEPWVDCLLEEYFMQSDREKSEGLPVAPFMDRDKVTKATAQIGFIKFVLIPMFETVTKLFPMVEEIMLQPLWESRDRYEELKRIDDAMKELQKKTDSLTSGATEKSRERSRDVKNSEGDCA
row,IC50,Compound
1,0.1 nM,"CCSc1nnc(NC(=O)C(C)Sc2nc3c(cnn3C3CCOCC3)c(=O)[nH]2)s1 (stereo not drawn) [Example 45, N-(5-(ethylthio)-1,3,4-thiadiazol-2-yl)-2-((4-oxo-1-(tetrahydro-2H-pyran-4-yl)-4,5-dihydro-1H-pyrazolo[3,4-d]pyrimidin-6-yl)thio)propanamide]"
2,0.2 nM,"CC(Sc1nc2c(cnn2C2CCOCC2)c(=O)[nH]1)C(=O)Nc1nnc(Br)s1 (stereo not drawn) [Example 46, N-(5-bromo-1,3,4-thiadiazol-2-yl)-2-((4-oxo-1-(tetrahydro-2H-pyran-4-yl)-4,5-dihydro-1H-pyrazolo[3,4-d]pyrimidin-6-yl)thio)propanamide]"
3,0.1 nM,"CC(Sc1nc2c(cnn2C2CCOCC2)c(=O)[nH]1)C(=O)Nc1nnc(Cl)s1 (stereo not drawn) [Example 47, N-(5-chloro-1,3,4-thiadiazol-2-yl)-2-((4-oxo-1-(tetrahydro-2H-pyran-4-yl)-4,5-dihydro-1H-pyrazolo[3,4-d]pyrimidin-6-yl)thio)propanamide]"
4,0.3 nM,"CC(Sc1nc2c(cnn2C2CCC(F)(F)CC2)c(=O)[nH]1)C(=O)Nc1nnc(Cl)s1 (stereo not drawn) [Example 48, N-(5-chloro-1,3,4-thiadiazol-2-yl)-2-((1-(4,4-difluorocyclohexyl)-4-oxo-4,5-dihydro-1H-pyrazolo[3,4-d]pyrimidin-6-yl)thio)propanamide]"

row,Compound,IC50
1,"N-(5-(isopropylthio)-1,3,4-thiadiazol-2-yl)-2-((4-oxo-1-phenyl-4,5-dihydro-1H-pyrazolo[3,4-d]pyrimidin-6-yl)thio)acetamide [Example 14]",9 nM
2,"N-(5-(methylthio)-1,3,4-thiadiazol-2-yl)-2-((4-oxo-1-phenyl-4,5-dihydro-1H-pyrazolo[3,4-d]pyrimidin-6-yl)thio)acetamide [Example 13]",29 nM
